# Reference: the supplement of paper PMC10307832
# Legend:
# Assay in all cases: relative viability (nuclei count vs DMSO), 5 days (fraction); higher = more cells survive
# Erlotinib + Palbociclib = compound: C#Cc1cccc(Nc2ncnc3cc(OCCOC)c(OCCOC)cc23)c1 [Erlotinib] + CC(=O)c1c(C)c2cnc(Nc3ccc(N4CCNCC4)cn3)nc2n(C2CCCC2)c1=O [Palbociclib] (partner 0.5 µM)
# Procedure, shortened: (§1)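 Dosing by pin tool came one day after lung cancer cell lines were seeded in 1536-well plates, using either one drug or a fixed anchor-drug dose plus five library-drug doses (not always all listed) in √10 steps. After 5 days, nuclei were counted on 4× images. Relative viability is treated-well nuclei count divided by vehicle-well nuclei count, and values are medians of duplicate plates.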
# Erlotinib + Navitoclax = compound: C#Cc1cccc(Nc2ncnc3cc(OCCOC)c(OCCOC)cc23)c1 [Erlotinib] + CC1(C)CCC(c2ccc(Cl)cc2)=C(CN2CCN(c3ccc(C(=O)NS(=O)(=O)c4ccc(N[C@H](CCN5CCOCC5)CSc5ccccc5)c(S(=O)(=O)C(F)(F)F)c4)cc3)CC2)C1 [Navitoclax] (partner 0.5 µM)
# Procedure, shortened: as §1
# AT9283 + Palbociclib = compound: O=C(Nc1c[nH]nc1-c1nc2ccc(CN3CCOCC3)cc2[nH]1)NC1CC1 [AT9283] + CC(=O)c1c(C)c2cnc(Nc3ccc(N4CCNCC4)cn3)nc2n(C2CCCC2)c1=O [Palbociclib] (partner 0.5 µM)
# Procedure, shortened: as §1
# AT9283 + Linsitinib = compound: O=C(Nc1c[nH]nc1-c1nc2ccc(CN3CCOCC3)cc2[nH]1)NC1CC1 [AT9283] + C[C@]1(O)C[C@@H](c2nc(-c3ccc4ccc(-c5ccccc5)nc4c3)c3c(N)nccn32)C1 [Linsitinib] (partner 1 µM)
# Procedure, shortened: as §1
# AT9283 + Phenformin = compound: O=C(Nc1c[nH]nc1-c1nc2ccc(CN3CCOCC3)cc2[nH]1)NC1CC1 [AT9283] + N=C(N)NC(=N)NCCc1ccccc1 [Phenformin] (partner 250 µM)
# Procedure, shortened: as §1
Cell Line,relative viability (Erlotinib + Palbociclib; first compound 0.02 µM),relative viability (Erlotinib + Palbociclib; first compound 0.2 µM),relative viability (Erlotinib + Palbociclib; first compound 0.6325 µM),relative viability (Erlotinib + Palbociclib; first compound 2 µM),relative viability (Erlotinib + Navitoclax; first compound 0.02 µM),relative viability (Erlotinib + Navitoclax; first compound 0.2 µM),relative viability (Erlotinib + Navitoclax; first compound 0.6325 µM),relative viability (Erlotinib + Navitoclax; first compound 2 µM),relative viability (AT9283 + Palbociclib; first compound 0.003 µM),relative viability (AT9283 + Palbociclib; first compound 0.03 µM),relative viability (AT9283 + Palbociclib; first compound 0.09487 µM),relative viability (AT9283 + Palbociclib; first compound 0.3 µM),relative viability (AT9283 + Linsitinib; first compound 0.003 µM),relative viability (AT9283 + Linsitinib; first compound 0.03 µM),relative viability (AT9283 + Linsitinib; first compound 0.09487 µM),relative viability (AT9283 + Linsitinib; first compound 0.3 µM),relative viability (AT9283 + Phenformin; first compound 0.003 µM),relative viability (AT9283 + Phenformin; first compound 0.03 µM),relative viability (AT9283 + Phenformin; first compound 0.09487 µM),relative viability (AT9283 + Phenformin; first compound 0.3 µM)
LK-2,0.579,0.589,0.712,0.743,0.941,0.621,1.04,0.725,0.527,0.145,0.133,0.115,0.341,0.351,0.129,0.127,0.516,0.156,0.136,0.175
LOU-NH91,0.564,0.546,0.624,0.542,0.52,0.38,0.392,0.4,0.552,0.515,0.418,0.439,0.903,0.968,0.604,0.464,0.658,0.673,0.454,0.371
LU99A,0.466,0.421,0.38,0.327,0.937,0.784,0.725,0.746,0.358,0.226,0.14,0.139,0.409,0.196,0.165,0.165,0.804,0.441,0.17,0.199
LXF-289,0.583,0.566,0.531,0.539,0.904,0.991,0.933,0.869,0.608,0.647,0.254,0.152,1,0.47,0.132,0.12,0.528,0.447,0.0782,0.0825
NCI-H23,0.571,0.447,0.453,0.509,0.894,0.88,1.16,0.596,0.496,0.454,0.417,0.243,0.801,0.338,0.232,0.145,0.811,0.744,0.413,0.297
NCI-H322M,0.401,0.431,0.378,0.426,1.12,1.09,0.77,0.468,0.481,0.494,0.423,0.427,0.932,0.682,0.478,0.425,0.65,0.486,0.414,0.387
NCI-H460,0.257,0.14,0.198,0.183,1.09,0.867,1.44,–,0.146,0.191,0.0941,0.0475,0.761,0.0766,0.0186,0.0256,0.517,0.508,0.0947,0.0363
NCI-H520,0.202,0.223,0.272,0.311,1.17,1.11,1.29,1.12,0.238,0.2,0.142,0.127,0.926,0.37,0.291,0.181,0.572,0.284,0.243,0.174
NCI-H647,0.417,0.307,0.562,0.316,1.42,0.955,1.5,0.991,0.395,0.363,0.126,0.131,1.11,0.17,0.151,0.11,0.525,0.305,0.145,0.0997
NCI-H727,0.615,0.513,0.586,0.476,0.447,0.393,0.384,0.347,0.583,0.626,0.514,0.428,0.211,0.16,0.199,0.23,0.39,0.447,0.298,0.39
NCI-H838,0.225,0.205,0.225,0.211,1.26,1.11,1.27,1.05,0.257,0.227,0.154,0.138,1.01,0.247,0.217,0.197,0.564,0.23,0.165,0.17
NCI-H1355,0.387,0.344,0.325,0.269,1.02,0.9,0.812,0.675,0.395,0.404,0.376,0.152,0.807,0.649,0.273,0.167,0.478,0.449,0.362,0.238
NCI-H1395,0.619,0.532,0.657,0.571,1.09,1.02,1.32,1.13,0.597,0.598,0.397,0.305,1.08,0.901,0.373,0.383,0.391,0.43,0.316,0.321
NCI-H1437,0.308,0.27,0.319,0.281,–,1.15,–,0.976,0.319,0.354,0.206,0.193,1.06,0.691,0.181,0.158,0.294,0.263,0.149,0.127
NCI-H1651,0.527,0.474,0.514,0.478,1.04,0.861,1.11,0.934,0.476,0.502,0.534,0.237,1.05,0.864,0.348,0.357,0.293,0.358,0.277,0.219
